Measurements: patent US20250326718A1, “4-PHENYL-2-PYRROLIDINONES AND METHODS OF USING THEREOF” (North Carolina State University, priority 2022, published 2025)
Values after ≈ are worked out from the molar mass of the structure shown. Where a name gives a salt, the structure may show the parent alone. Read-outs that look alike come from different tables or passages of the source.

What was measured:
MRSA (ATCC 33591) = assay: Broth microdilution MIC, MRSA ATCC 33591; format: cell-based; details: Staphylococcus aureus; Table 1, Compounds 1-15; preliminary data, modified non-standard conditions (pH 9), solubility-limited
Procedure: (§1) General information—Biological Assays. Methicillin-resistant and methicillin sensitive Staphylococcus aureus (MRSA and MSSA respectively) strains were obtained from the Laboratory of Professor Christian Melander (NCSU) (ATCC BAA 44 and 33591) and Dr. Jessica Gilbertie (ATCC 25923). Bacteria were kept in frozen stocks on glycerol at −80° C. until use. Bacteria was streaked onto tryptic-soy agar for colony isolation. Mueller-Hinton broth (MHB, 211443-BD), tryptic soy broth (TSB, Remel: R455052) and D-glucose (CAS: 492-62-6) were purchased from Fisher Scientific. Tryptic soy agar (TSA, cat. #22091) and Linezolid (cat. #P70014) were purchased from Sigma-Aldrich. Bacteria for biofilm inhibition were cultured overnight in TSB-G (tryptic soy broth with 0.5% glucose supplement) in 96 well plates. All assays were run in duplicate and repeated at least two separate times for MIC assays and at least three separate times for biofilm inhibition. All compounds were dissolved in molecular biology grade DMSO as 10 mM stock solutions. Optical densities were measured using a Thermo Scientific Genesys 20 spectrophotometer. Data for biofilm inhibition were collected using a BioTek ELx808 Microplate Reader. All graphs were generated and analyzed using GraphPad Prism 7.
Broth microdilution method for determination of minimum inhibitory concentrations. As prescribed by the Clinical and Laboratory Standards Institute (CLSI) M07-A8, Vol. 29 (2) MSSA (ATCC 25923) and MRSA (ATCC BAA 44 and 33591) was grown in MHB for 6-8 h; this culture was used to inoculate fresh MHB (5×10^5 CFU/mL). The resulting bacterial suspension was aliquoted (1 mL) into 1.5 mL Eppendorf tubes and compound was added from a 10 mM DMSO stock to achieve the desired initial starting concentration (typically 128 μg/mL). Linezolid (from a 10 mM DMSO stock) was used as a positive control. Inoculated media not treated with compound served as the negative control. The MIC was determined by microbroth dilution following the CLSI guidelines. The MIC was defined as the lowest concentration of antibiotic with no visible growth. The plate was sealed and incubated under stationary conditions at 37° C.
The antimicrobial activity of Compounds 1-15 was assessed initially against MSSA (ATCC 25923) and MRSA (ATCC 33591) strains. It was observed that almost all these compounds precipitated in aqueous solution at concentrations equal or higher than 8-16 μg/mL. In order to obtain preliminary results on the antimicrobial activity for these compounds, the standard conditions of the antimicrobial assays used where modified to favor the water solubility of these compounds.

[1] = test system: MRSA (ATCC BAA 44) biofilm; assay: Inhibition of MRSA biofilm formation (crystal violet); format: cell-based; details: Staphylococcus aureus, 24 h, Table 1
Procedure: as §1
Determination of the inhibitory effect of test compounds on MRSA biofilm formation. Inhibition assays were performed using a procedure adapted from S. A. Rogers and C. Melander, Angew. Chem. Int. Ed., 2008, 47, 5229-5231, which is hereby incorporated herein by reference. Briefly, the inhibition assays were performed by subculturing an overnight culture of MRSA (ATCC BAA 44) to an OD600 of 0.01 in TSB-G (tryptic soy broth with a 0.5% glucose supplement). Stock solutions of predetermined concentrations of the test compound were then made using the inoculated TSB-G. These stock solutions were aliquoted (100 μL) into the wells of the 96-well microtiter plate. Sample plates were sealed then incubated for 24 h at 37° C. After incubation, the medium was discarded from the wells and the plates were washed 2× with PBS. Prior to staining, plates were left to dry at ambient temperature for 2-3 h. Plates were then stained with 0.1% solution of crystal violet (CV, 125 μL) and then incubated at ambient temperature for 30 min. Plates were washed with PBS again and the remaining stain was solubilized with 99% ethanol (200 μL). A sample of solubilized CV stain (110 μL) from each well was transferred to the corresponding wells of a polystyrene microtiter dish. Biofilm biomass was quantified by measuring the OD540 of each well and inhibition was calculated as a percentage of the control (no compound); a negative control lane wherein no biofilm was formed served as a background and was subtracted out. Percent inhibition was then plotted against concentration in Prism 7. Each of the four experiments were plotted separately and S15 analyzed by a normalized nonlinear regression. The graphs on the following pages were generated from an average of the total data set. Biofilm data represent four separate experiments, with each experiment performed in duplicate (average of 8 data points for each concentration tested, unless otherwise noted).

[2] = test system: MSSA (ATCC 25923) biofilms; assay: Minimum Biofilm Eradication Concentration (MBEC), Calgary Biofilm Device; format: cell-based, Staphylococcus aureus; details: antibiotic alone
Procedure: MBEC concentrations were measured using a procedure adapted from H. Ceri, et al., J Clin. Microbiol., 1999, 1771-1776, which is hereby incorporated herein by reference. Briefly, biofilm eradication experiments were performed using MSSA (ATCC 25923) and the Calgary Biofilm Device (CBD) to determine MBEC values for various compounds of interest (Innovotech, product code: 19111). The Calgary device is a 96-well plate with a lid containing 96 pegs that sit in the media contained in the bottom well. Biofilm are established on the individual pegs. The established biofilm (contained on the individual peg) can then be transferred to a new base well for MBEC testing. For the MBEC assay, an overnight culture of MSSA (ATCC 25923) was adjusted to 0.5 McFarland in MHB-G. The CBD was inoculated with 100 μL of the 0.5 McFarland and incubated at 37° C. for 24 hours to establish biofilms. The CBD lid containing the established biofilms on individual pegs was removed, washed 3× with PBS and transferred to another 96-well plate containing serial dilutions of the test compounds (the “challenge plate”) and incubated at 37° C. for 24 hours. […] The plate was then sonicated for sonicated for 30 minutes to disperse biofilms on S16 the pegs into the fresh MHB in the base well. After sonication, the plate was incubated for 24 hours at 37° C.

MSSA (ATCC 25923) = assay: Broth microdilution MIC, MSSA ATCC 25923; format: cell-based; details: Staphylococcus aureus, read-out: MIC value against MSSA ATCC 25923

Structure (SMILES)	MIC (MRSA (ATCC 33591)) [µg/mL]	inhibition at 5 µM [1] [%]	inhibition at 40 µM [1] [%]	MBEC value against MSSA ATCC 25923 [2] [pug/mL]	MIC (MSSA (ATCC 25923); antibiotic alone) [µg/mL]	MIC (MSSA (ATCC 25923)) [µg/mL]
CCC1C(c2ccc(C(F)(F)F)cc2)=C(O)C(=O)N1c1ccc(OC)c(OC)c1 (stereo not shown) [Compound 5, 1-(3,4-Dimethoxyphenyl)-5-ethyl-3-hydroxy-4-(4-(trifluoromethyl)phenyl)-1,5-dihydro-2H-pyrrol-2-one]	> 128	17	70	–	–	–
CCC1C(c2ccc(C(F)(F)F)cc2)=C(O)C(=O)N1c1cccnc1 (stereo not shown) [Compound 6, 5-Ethyl-3-hydroxy-1-(pyridin-3-yl)-4-(4-(trifluoromethyl)phenyl)-1,5-dihydro-2H-pyrrol-2-one]	> 128	4	31	–	–	–
CCC1C(c2ccc(C(F)(F)F)cc2)=C(O)C(=O)N1Cc1cccs1 (stereo not shown) [Compound 7, 5-Ethyl-3-hydroxy-1-(thiophen-2-ylmethyl)-4-(4-(trifluoromethyl)phenyl)-1,5-dihydro-2H-pyrrol-2-one]	> 128	54	79	–	–	–
CCC1C(c2ccc(C(F)(F)F)cc2)=C(O)C(=O)N1CCc1ccccc1 (stereo not shown) [Compound 8, 5-Ethyl-3-hydroxy-1-phenethyl-4-(4-(trifluoromethyl)phenyl)-1,5-dihydro-2H-pyrrol-2-one]	> 128	23	46	–	–	–
O=C1C(O)=C(c2ccc(C(F)(F)F)cc2)CN1c1ccccc1 [Compound 9, 3-Hydroxy-1-phenyl-4-(4-(trifluoromethyl)phenyl)-1,5-dihydro-2H-pyrrol-2-one]	> 128	26	8	–	–	–
CC(C)C1C(c2ccc(C(F)(F)F)cc2)=C(O)C(=O)N1c1ccccc1 (stereo not shown) [Compound 10, 3-Hydroxy-5-isopropyl-1-phenyl-4-(4-(trifluoromethyl)phenyl)-1,5-dihydro-2H-pyrrol-2-one]	> 128	-5	3	–	–	–
CCCCCN1C(=O)C(O)=C(c2ccc(C(F)(F)F)cc2)C1CC (stereo not shown) [Compound 11, 5-Ethyl-3-hydroxy-1-pentyl-4-(4-(trifluoromethyl)phenyl)-1,5-dihydro-2H-pyrrol-2-one]	16 (≈ 46.9 µM)	58	63	–	–	–
CCC1C(c2ccc(C(F)(F)F)cc2)=C(O)C(=O)N1CCC(C)C (stereo not shown) [Compound 14, 5-Ethyl-3-hydroxy-1-isopentyl-4-(4-(trifluoromethyl)phenyl)-1,5-dihydro-2H-pyrrol-2-one]	> 128	47	43	–	–	–
CCC1C(c2ccc(C(F)(F)F)cc2)=C(O)C(=O)N1Cc1ccc(OC)cc1OC (stereo not shown) [Compound 15]	> 128	63	57	–	–	–
Cc1onc(-c2ccccc2)c1C(=O)N[C@@H]1C(=O)N2[C@@H]1SC(C)(C)[C@@H]2C(=O)O [Oxacillin, oxacillin sodium monohydrate, reference compound]	–	–	–	2048	0.5	–
CN[C@H](CC(C)C)C(=O)N[C@H]1C(=O)N[C@@H](CC(N)=O)C(=O)N[C@H]2C(=O)N[C@H]3C(=O)N[C@H](C(=O)N[C@H](C(=O)O)c4cc(O)cc(O)c4-c4cc3ccc4O)[C@H](O)c3ccc(c(Cl)c3)Oc3cc2cc(c3O[C@@H]2O[C@H](CO)[C@@H](O)[C@H](O)[C@H]2O[C@H]2C[C@](C)(N)[C@H](O)[C@H](C)O2)Oc2ccc(cc2Cl)[C@H]1O [Vancomycin, vancomycin hydrochloride, reference compound]	–	–	–	2048	–	0.5
